Key:
[1] = tested on: HepG2 cells; test: Cytotoxicity, CellTiter-glo, HepG2; conditions: read-out: EC50 HepG2, 72 h
Experimental: (§1) Fig. 4 Intracellular proteasome inhibition by PKS21221 and its cytotoxicity against transformed cell lines. a Karpas 1106P lymphoma cells (white and black symbols) or HepG2 cells (blue symbols) were treated with PKS21221 for 2 h at the concentrations indicated prior to incubation with substrate (Ac-ANW)2R110 for β5i (Karpas cells) or suc-LLVY-luciferin for β5 (Karpas cells and HepG2 cells). […] Cell viability was determined by CellTiter-glo. Data are means ± SEM of three to four independent experiments
(§2) We incubated MM.1S, RPMI 8226, Karpas and HepG2 cells with PKS21221 at different concentrations, and determined cell viability after 72 h (Fig. 4b).
(§3) We used Karpas 1106P B lymphoma cell line (Cat. No. 06072607, Aldrich)[15],[16],[52], HepG2 (HB-8065, ATCC), MM.1S (Cat. No. CRL-2974, ATCC). Cells were cultured at 37 °C in a humidified air/5% CO2 atmosphere in medium supplemented with 10% fetal bovine serum, except for the medium for Karpas 1106P cells which contained 20% fetal bovine serum, and 100 units per ml penicillin, 100 μg per ml streptomycin in RPMI 1640 medium. Karpas 1106P was used at 80,000 cells per well, MM.1S at 100,000 cells per well, and HepG2 at 12,000 cells per well. […] Viable cells were counted using Cell-titer Glo assay kit. EC50s were calculated using PRISM (Graphpad).

[2] = tested on: CD19+ non-ASCs; test: Apoptosis and viability of CD19+ non-ASCs in ASC differentiation culture; format: cell-based
Experimental: (§4) The immunoproteasome plays important roles in T cell differentiation and proliferation and dendritic cell activation and maturation[14],[20],[24]. However, its role in B cell differentiation is not well understood. […] Differentiated ASCs were then exposed to PKS21221 at indicated concentrations and cell survival was determined with Annexin V and 7-aminoactinomycin D (7-AAD) at three-time points (12-h, 24-h, and 48-h after treatment). […] In addition, the cytotoxicity of PKS21221 to different cell populations in PBMC was examined and compared to the cytotoxicity of bortezomib. PBMCs were incubated with PKS21221 or bortezomib, and the viability was assessed in T cells (CD3^+), B cells (CD19^+), monocytes (CD14^+) and dendritic cells (CD3^−CD19^−CD14^−CD16^−CD11c^+HLA-DR^+), respectively (Supplementary Fig. 13b–e).
PBMCs were cultured with or without IL-2/R848 for 5 days, followed by 12-h incubation with PKS21221 at different concentrations. a Representative flow cytometry plots of cells treated with IL-2 and R848 in the presence and absence of PKS21221. […] Annexin V^+7-AAD^− cells were referred as “Early apoptosis” population, and Annexin V^+7-AAD^+ cells were referred as “Dead” population. d Percentage of early apoptotic ASCs (left) and dead ASCs (right), after 12-h incubation with PKS21221. […]

[3] = tested on: Karpas 1106P cells; test: Cytotoxicity, CellTiter-glo, Karpas 1106P; conditions: read-out: EC50 Karpas, 72 h
Experimental: as §1, §2, §3

[4] = tested on: luciferase; test: Luciferase counter-test; format: biochemical; conditions: at 100 µM, tested over 0.002–100 µM
[5] = biological target: human β5c (Homo sapiens, UniProt P20618+P28074); test: IC50 determination against human β5c of c-20S
Experimental: (§5) IC50s of all compounds against β5i and β5c (Table 2) and against β1i, β2i, β1c, and β2c (Supplementary Table 1) were determined following reported methods[8].

[6] = tested on: CD19+CD38+CD27+ ASCs; test: Survival and apoptosis of differentiated antibody-secreting cells (ASCs) from PBMC, Annexin V/7-AAD; format: cell-based, human
Experimental: as §4
PBMCs were cultured with or without IL-2/R848 for 5 days, followed by 12-h incubation with PKS21221 at different concentrations. a Representative flow cytometry plots of cells treated with IL-2 and R848 in the presence and absence of PKS21221. […] Annexin V^+7-AAD^− cells were referred as “Early apoptosis” population, and Annexin V^+7-AAD^+ cells were referred as “Dead” population. d Percentage of early apoptotic ASCs (left) and dead ASCs (right), after 12-h incubation with PKS21221.
Human peripheral blood samples were obtained from five different healthy volunteers (BWH Specimen Bank). Peripheral blood mononuclear cells (PBMCs) were isolated by density gradient centrifugation using Lymphoprep (StemCell Technologies). PBMCs were cultured at 1.5 × 10^6 cells per mL in RPMI 1640 media (Lonza), supplemented with 10% human serum (GemCell) (10% HS-RPMI), recombinant human IL-2 10 ng per mL (or 100 U per ml, BioLegend) and R848 1 µg per mL (Cayman Chemicals) for 5 days, at 37 °C, 5% CO2. PKS21221 in DMSO, or DMSO only for control, was added to the culture media on day 5, and cells were incubated for additional 12, 24, and 48 h.

[7] = biological target: β2i (Homo sapiens, UniProt P40306); test: IC50 against β2i of human immunoproteasome (Z-VLR-AMC); conditions: read-out: IC50 2i - VLR (β2i); substrate Z-VLR-AMC
Experimental: as §5

SMILES: Cc1ccc(S(=O)(=O)N[C@@H](CC(=O)NC(C)(C)C)C(=O)NCCNC(=O)c2cc(-c3ccccc3F)ccc2F)cc1 [PKS21221]
- EC50 [1]: 2320 ± 630 nM
- apoptosis of CD19+ non-ASCs [2]: slightly enhanced
- viability of CD19+ non-ASCs [2]: did not affect viability
- EC50 [3]: 740 ± 145 nM
- inhibition of luciferase activity [4]: does not inhibit
- Hill coefficient constant, inhibition of β5c [5]: ~ 1
- IC50 ([5]; read-out: IC50 against β5c): 110 nM
- percentage of viable ASC ([6]; 12-h, 24-h, 48-h after treatment): decreased with PKS21221 treatment in a dose- and time-dependent manner
- ASC percentage in ASC differentiating culture ([6]; added for 12 hours on Day 5): decreased the percentage of
- IC50 [7]: > 50000 nM

Source: PMC5700161, “Structure of human immunoproteasome with a reversible and noncompetitive inhibitor that selectively inhibits activated lymphocytes” (Nature Communications, 2017)
